Experiments:
[1] = test system: patient-derived HBV (genotype B); experiment: Serum-derived HBV genotype B infection of HepaRG cells stably transduced with hNTCP; assay type: cell-based, hepatitis B virus; details: NTCP-overexpressing HepaRG cells
Description: Supplementary materials and methods Serum-derived HBV genotype B infection study For these experiments HepaRG cells stably transduced with hNTCP were used. Differentiation and serum-derived HBV genotype B infection were performed following similar protocols as described for wildtype HepaRG cells in the main materials&methods with the following changes: 8 hours infection and supernatant collection for HBeAg and HBsAg analysis from day 9 to 12. Total RNA was extracted from cells 12 days after infection using the NucleoSpin RNA isolation kit (Macherey-Nagel). Reverse transcription was performed with the High-Capacity cDNA Reverse Transcription Kit (Thermo Scientific). mRNA levels were determined by qPCR using the iTaq™ Universal SYBR® Green Supermix (Bio-rad) with HBV specific primers (forward: 5’-[…]-3’; reverse: 5’-[…]-3’). GAPDH mRNA levels were used for normalization (forward: 5’-[…]-3’; reverse: 5’-[…]-3’). Total DNA was extracted from cells 12 days after infection using the NucleoSpin Tissue kit (Macherey-Nagel). HBV DNA levels were determined by qPCR PerfeCTa qPCR Toughmix (Quanta Biosciences) with HBV specific primers (forward: 5’- […]-3’; reverse: 5’- […]-3’) and a probe (5’-TxRed-[…]-BHQ2-3’). β-globin levels were used for normalization (forward: 5’- […]-3’; reverse: 5’- […]-3’; probe: 5’-HEX- […]-BHQ1-3’). […]

human NTCP = biological target: T1, human NTCP (Homo sapiens, UniProt Q14973); experiment: Myrcludex B-FITC binding by confocal microscopy in U2OS-HA-hNTCP cells; parameters: HA; expressed in transfected cells
T1 sequence (Q14973 1-349): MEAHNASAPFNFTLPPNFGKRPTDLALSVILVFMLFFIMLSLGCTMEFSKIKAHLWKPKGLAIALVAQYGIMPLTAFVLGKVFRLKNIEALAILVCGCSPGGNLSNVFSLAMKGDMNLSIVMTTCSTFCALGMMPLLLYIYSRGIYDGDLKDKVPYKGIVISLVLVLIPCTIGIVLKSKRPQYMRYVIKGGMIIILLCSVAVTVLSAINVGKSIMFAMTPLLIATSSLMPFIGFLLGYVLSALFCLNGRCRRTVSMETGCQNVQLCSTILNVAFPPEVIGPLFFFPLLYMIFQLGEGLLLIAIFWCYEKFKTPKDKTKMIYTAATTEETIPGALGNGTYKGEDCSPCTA
Description: After 24 hours, medium was aspirated and cells were washed once with 300 µl Leibovitz’s L-15 Medium (Invitrogen). A 30 minute incubation period followed in which all cells were incubated with 0.2 µM Myrcludex B-FITC with or without drug (1, 10, 100 µM) and Hoechst (1/1000) in 300 µL Leibovitz’s L-15 Medium. Cells were washed twice with Leibovitz’s L-15 Medium and subsequently 400 µL Leibovitz’s L-15 Medium was added. Live cell fluorescent imaging was performed using a Leica SP8X-SMD confocal microscope with fully enclosed incubation at 37 °C. A 63x oil objective was used and images were captured while the cells were consecutively excited at 490 nm (FITC) 350 nm (Hoechst). ImageJ software (National Insititutes of Health, Bethesda, MD) was employed for data analysis.

in vitro = details: human, U2OS-HA-hNTCP cells

For `O=C(O)c1cc(/N=N/c2ccc(S(=O)(=O)Nc3ccccn3)cc2)ccc1O` [Sulfasalazine], the “HBeAg, HBsAg, HBV DNA and HBV RNA after serum-derived HBV infection” value [1] was “reduced HBeAg, HBsAg, HBV DNA, and HBV RNA in a dose-dependent fashion”, the “HBeAg, HBsAg, HBV DNA and HBV RNA after serum-derived HBV infection” value ([1]; listed as sulfasalazine) was “reduced by sulfasalazine in a dose-dependent fashion” and the “Myrcludex B-FITC fluorescence / binding to U2OS-HA-hNTCP cells (in words)” value (human NTCP; co-administration with increasing amounts of drug) was “reduced”. The “≥50% loss of Myrcludex B binding to hNTCP (concentration)” value (human NTCP; confocal microscopy, 0.2 µM Myrcludex B-FITC, drug 1, 10, 100 µM, concentration at which binding inhibited minimally 50%) was no less than 1 µM, the viability at 2 h, 1 µM (in vitro) was 98.1 ± 3% and the viability at 2 h, 10 µM (in vitro) was 90.6 ± 6.9%. For the same compound, the viability at 2 h, 100 µM (in vitro) was 85 ± 9.1%.
